Series [1] has as its system neuropathic pain (mechanical allodynia) in SCI, LSS and SNI animal models. Briefly: Mechanical allodynia (von Frey, 50% threshold) in SCI, LSS and SNI neuropathic pain models. It counts as in vivo, Sprague-Dawley rats. The note with it: i.p. 5 mg/kg; at 1 hour after administration. The procedure:
To be used as a central nerve injury animal model, a traumatic spinal cord injury (SCI) model was prepared (FIG. 1A). Specifically, 230 to 250 g of male adult Sprague-Dawley rats were anesthetized by intraperitoneal injection of chloral hydrate (500 mg/kg), and then the back and neck regions were shaved, and the spinal cord under the back and neck regions was exposed without damaging the dura mater, and a laminectomy was performed at T9 to T10 levels. To stabilize the spine, the spinous processes of T8 and T11 were fixed, and the spine was damaged by free-falling a 10 g weight from a height of 25 mm using an NYU impactor onto the back surface of the exposed spinal cord and then the rats were left in a temperature and humidity-controlled chamber overnight while covering the muscles and skin. After surgery, the rats were subcutaneously injected with a supplement solution (5 ml, lactated ringer) and injected with antibiotics (gentamicin, 5 mg/kg, intramuscular injection) once daily for 5 days. The body weight, remaining food, and the weight of water were confirmed and recorded for all animals, and the bladder was emptied twice daily by passive bladder massage until reflex micturition was established. At this time, a Sham group was a group that was subjected to only laminectomy without damage.
To be used as a peripheral nerve injury animal model, a lumbar spinal stenosis (LSS) model was prepared (FIG. 1B). Specifically, 260 to 280 g of adult male Sprague-Dawley rats were anesthetized with intraperitoneal injection of chloral hydrate (500 mg/kg), the back region was shaved, and then the spinal plate was exposed at L4 to S2 levels. After removing the ligamentous section between L4 and L5, a trapezoidal silicone block (1.00 mm long×1.3 to 1.2 mm wide×1.0 mm high) was inserted into the epidural space below the L5 and L6 spinal plates without damaging the dural sac. At this time, a Sham group was a group that was subjected to only posterior […] on the animal without inserting a silicone block.
To be used as a peripheral nerve injury animal model, a sciatic nerve injury (SNI) model was prepared (FIG. 1C). Specifically, 200 to 220 g of male adult Sprague-Dawley rats were anesthetized by intraperitoneal injection of chloral hydrate (500 mg/kg), and then three terminal branches (tibial, common peroneal, and sural nerves) of the right sciatic nerve were approached, and the tibia nerve and the peroneal nerve were tightly ligated with 4-0 silk, and neurectomy was performed at a distal 3 mm position of the ligation site. At this time, a Sham group was a group that exposed only the sciatic nerve without damage.
In order to confirm a neuropathic pain inhibitory effect of YJ102 (Chemical Formula 1), a compound of the present disclosure, in the three nerve injury animal models prepared in Example 1 above, rats having pain on week 3 (SNI model) or week 4 (SCI model and LSS model) after surgery were selected and administered orally (p.o.) at 10 mg/kg or 20 mg/kg of YJ102 dissolved in a solution of DMSO, methyl pyrrolidinone, and water (1:1.5:1), or intraperitoneally injected (i.p. injection) at 1, 2, or 5 mg/kg of YJ102. In a positive control group, gabapentin or pregabalin dissolved in saline was intraperitoneally injected at a concentration of 5 mg/kg, and in a Vehicle group, the same amount of a solution of DMSO, methyl pyrrolidinone, and water was administered. Thereafter, in order to measure mechanical allodynia, the rats were located at the bottom of a transparent plastic box (10 cm×10 cm) on top of a wire mesh (3 mm×3 mm) and subjected to an adaptation period for approximately 20 minutes. Von-Frey filaments were applied to the soles of both paws and used with stiff nylon von-Frey monofilament series ([…], Stoelting, WoodDale, IL, USA; equivalent in grams to 0.4, 0.6, 1.0, 2.0, 4.0, 6.0, 8.0 and 15.0) with logarithmic increases in tactile (mechanical) sensitivity. […]

The next series relates to sedation. Briefly: Sedation as side effect of the drug. Type of series: in vivo, Sprague-Dawley rats.

In the case of `CC(C)C[C@H](CN)CC(=O)O` [pregabalin, reference compound], in series [1], the analgesic effect result was “significant analgesic effect”. In addition, in the series on sedation (20 mg/kg), the sedation entry was “sedation as a side effect of the drug was observed”.

As for `NCC1(CC(=O)O)CCCCC1` [gabapentin, reference compound], in series [1], the analgesic effect result is on record as “significant analgesic effect”. In the series with sedation (50 mg/kg), the sedation result is on record as “sedation as a side effect of the drug was observed”.

For the origin of these results see patent US20260335293A1, “USE OF NOVEL COMPOUND FOR TREATING INTRACTABLE DISEASES” (YJ CERAPEUTICS INC., priority 2023, published 2026).
